# Assay results reported in patent publication US8377974B2 (Millennium Pharmaceuticals, Inc., priority 2004, dated 2013).
# Biological target: T1, human plasma protein factor Xa (Homo sapiens, UniProt P00742)
# T1 construct: measure proteolytic activity of the enzyme (factor Xa); purchased Haematologic Technologies (Essex Junction, Vt.); host or cells: human plasma
# Assay: Factor Xa IC50 determination: cleavage of paranitroanilide substrate S-2765 in 96-well plates
# Assay type: biochemical
# Conditions: fXa 1 nM, S-2765 100 μM, Tris buffered saline pH 7.4, room temperature
# Summary of the method: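 Initial rates of S-2765 (100 μM final) cleavage, read at 405 nm for 2 min, fitted with a four-parameter equation to give IC50. Enzyme: 1 nM human plasma fXa, 5 min room-temperature preincubation with inhibitor (0.01 nM–10 μM) in 20 mM Tris, 150 mM NaCl, 5 mM CaCl2, 0.1% BSA, 5% DMSO, pH 7.4; duplicates.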
# T1 sequence (P00742 235-488 limits assumed): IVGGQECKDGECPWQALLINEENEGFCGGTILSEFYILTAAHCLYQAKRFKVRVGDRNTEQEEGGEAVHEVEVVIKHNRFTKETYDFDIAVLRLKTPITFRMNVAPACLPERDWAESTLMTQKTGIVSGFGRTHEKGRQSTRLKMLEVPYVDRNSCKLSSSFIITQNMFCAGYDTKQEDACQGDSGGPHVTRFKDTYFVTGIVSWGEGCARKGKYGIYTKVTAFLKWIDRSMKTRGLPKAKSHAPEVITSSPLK
# T1 sequence (P00742 41-179 partner limits assumed): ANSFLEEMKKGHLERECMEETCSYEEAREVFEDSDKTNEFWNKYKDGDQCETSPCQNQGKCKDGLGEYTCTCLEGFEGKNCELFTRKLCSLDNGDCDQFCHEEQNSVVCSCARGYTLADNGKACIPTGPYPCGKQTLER
row,IC50,Compound
1,100 to 500 nM,"O=C(NCC1CC(c2ccc(N3CCCCC3=O)cc2)=NO1)c1ccc(Cl)s1 (stereo not shown) [Example 241, 5-Chloro-thiophene-2-carboxylic acid {3-[4-(2-oxo-piperidin-1-yl)-phenyl]-4,5-dihydro-isoxazol-5-ylmethyl}-amide]"
2,≤ 100 nM,"Cc1ccn(-c2ccc(-n3cc(CNC(=O)c4ccc(Cl)s4)nn3)cc2)c(=O)c1 [Example 295, 5-Chloro-N-((1-(4-(4-methyl-2-oxopyridin-1(2H)-yl)phenyl)-1H-1,2,3-triazol-4-yl)methyl)thiophene-2-carboxamide]"
3,100 to 500 nM,COCCN(C)c1cc(C2=NCCN2C)ccc1C1=NOC(CNC(=O)c2ccc(Cl)s2)C1 (stereo not shown) [Example 87]
4,≤ 100 nM,"CCN(CC)CCN(C)C(=O)c1ccc(C2=NOC(CNC(=O)c3ccc(Cl)s3)C2)cc1 (stereo not shown) [Example 166, 5-Chloro-thiophene-2-carboxylic acid (3-{4-[(2-diethylamino-ethyl)-methyl-carbamoyl]-phenyl}-4,5-dihydro-isoxazol-5-ylmethyl)-amide]"
5,≤ 100 nM,"CCOc1cc(C2=NCCN2C)ccc1C1=NOC(CNC(=O)c2ccc(Cl)s2)C1 (stereo not shown) [Example 107, 5-Chloro-thiophene-2-carboxylic acid {3-[2-ethoxy-4-(1-methyl-4,5-dihydro-1H-imidazol-2-yl)-phenyl]-4,5-dihydro-isoxazol-5-ylmethyl}-amide]"
6,≤ 100 nM,"O=C(NCC1CC(c2ccc(-n3cccc(Cl)c3=O)cc2)=NO1)c1ccc(Cl)s1 (stereo not shown) [Example 283, 5-Chloro-N-((3-(4-(3-chloro-2-oxopyridin-1(2H)-yl)phenyl)-4,5-dihydroisoxazol-5-yl)methyl)thiophene-2-carboxamide]"
7,≥ 500 nM,"CC(=N)N1CCC(c2cc(CNC(=O)c3ccc(Cl)s3)on2)CC1 [Example 180, 5-Chloro-thiophene-2-carboxylic acid {3-[1-(1-imino-ethyl)-piperidin-4-yl]-isoxazol-5-ylmethyl}-amide]"
8,≤ 100 nM,"CC1(CNC(=O)c2ccc(Cl)s2)CC(c2ccc(C(=N)N3CCCCC3)cc2)=NO1 (stereo not shown) [Example 60, 5-Chloro-thiophene-2-carboxylic acid {3-[4-(imino-piperidin-1-yl-methyl)-phenyl]-5-methyl-4,5-dihydro-isoxazol-5-ylmethyl}-amide]"
9,≥ 500 nM,"O=C(NCc1cc(-c2ccc(-c3cccnc3)cc2)no1)c1ccc(Cl)s1 [Example 192, 5-Chloro-thiophene-2-carboxylic acid [3-(4-pyridin-3-yl-phenyl)-isoxazol-5-ylmethyl]-amide]"
10,100 to 500 nM,"O=C(NCc1cn(-c2ccc(N3CCCCC3)nc2)nn1)c1ccc(Cl)s1 [Example 392, 5-Chloro-N-((1-(6-(piperidin-1-yl)pyridin-3-yl)-1H-1,2,3-triazol-4-yl)methyl)thiophene-2-carboxamide]"
11,≤ 100 nM,"O=C(NCC1CC(c2ccc(-n3cccc(F)c3=O)cc2)=NO1)c1ccc(Cl)s1 (stereo not shown) [Example 279, 5-Chloro-N-((3-(4-(3-fluoro-2-oxopyridin-1(2H)-yl)phenyl)-4,5-dihydroisoxazol-5-yl)methyl)thiophene-2-carboxamide]"
12,≤ 100 nM,"CN(C)C(=N)c1ccc(-c2ccc(F)c(CNC(=O)c3ccc(Cl)s3)c2)cc1 [Example 374, N-((5-(4-(N,N-Dimethylcarbamimidoyl)phenyl)-2-fluorophenyl)methyl)-5-chlorothiophene-2-carboxamide]"
13,≤ 100 nM,"CN(C)C(=N)c1ccc(C2=NOC(CNC(=O)c3ccc(Cl)s3)C2)c(OC2CCCC2)c1 (stereo not shown) [Example 112, 5-Chloro-thiophene-2-carboxylic acid {3-[2-cyclopentyloxy-4-(N,N-dimethyl-carbamimidoyl)-phenyl]-4,5-dihydro-isoxazol-5-ylmethyl}-amide]"
14,≥ 500 nM,"O=C(NCc1cc(C2CCNCC2)no1)c1ccc(Cl)s1 [Example 176, 5-Chloro-thiophene-2-carboxylic acid (3-piperidin-4-yl-isoxazol-5-ylmethyl)-amide]"
15,100 to 500 nM,"CN1CCN(c2ccc(C3=NOC(CNC(=O)c4ccc(Cl)s4)C3)cc2)CC1 (stereo not shown) [Example 235, 5-Chloro-thiophene-2-carboxylic acid {3-[4-(4-methyl-piperazin-1-yl)-phenyl]-4,5-dihydro-isoxazol-5-ylmethyl}-amide]"
16,≤ 100 nM,"CN(C)C(=N)c1ccc(-c2nc(CNC(=O)c3ccc(Cl)s3)co2)cc1 [Example 338, N-((2-(4-(N,N-Dimethylcarbamimidoyl)phenyl)oxazol-4-yl)methyl)-5-chlorothiophene-2-carboxamide]"
17,≥ 500 nM,"O=C(NCC1CC(c2ccc(N3CCOCC3)cc2)=NO1)c1ccc(Cl)s1 (stereo not shown) [Example 234, 5-Chloro-thiophene-2-carboxylic acid [3-(4-morpholin-4-yl-phenyl)-4,5-dihydro-isoxazol-5-ylmethyl]-amide]"
18,≥ 500 nM,"Cc1ccc(C2=NOC(C)(CNC(=O)c3ccc(Cl)s3)C2)cc1 (stereo not shown) [Example 148, 5-Chloro-thiophene-2-carboxylic acid (5-methyl-3-p-tolyl-4,5-dihydro-isoxazol-5-ylmethyl)-amide]"
19,100 to 500 nM,"N=C(c1ccc(C2=NOC(CNC(=O)c3ccc(Cl)s3)C2)c(N2CCCC2)c1)N1CCCC1 (stereo not shown) [Example 80, 5-Chloro-thiophene-2-carboxylic acid {3-[4-(imino-pyrrolidin-1-yl-methyl)-2-pyrrolidin-1-yl-phenyl]-4,5-dihydro-isoxazol-5-ylmethyl}-amide]"
20,≤ 100 nM,"COc1cc(C(=N)N(C)C)ccc1C1=NOC(CNC(=O)c2ccc(Cl)s2)C1 (stereo not shown) [Example 102, 5-Chloro-thiophene-2-carboxylic acid {3-[4-(N,N-dimethyl-carbamimidoyl)-2-methoxy-phenyl]-4,5-dihydro-isoxazol-5-ylmethyl}-amide]"
21,≥ 500 nM,"CCN(C)C(=N)c1ccc(-c2cc(CN(C)C(=O)c3ccc(Cl)s3)on2)cc1 [Example 42, 5-Chloro-thiophene-2-carboxylic acid {3-[4-(N-ethyl-N-methyl-carbamimidoyl)-phenyl]-isoxazol-5-ylmethyl}-methyl-amide]"
22,100 to 500 nM,"CN(C)CCN(C)c1ccc(C2=NOC(CNC(=O)c3ccc(Cl)s3)C2)cc1 (stereo not shown) [Example 238, 5-Chloro-thiophene-2-carboxylic acid (3-{4-[(2-dimethylamino-ethyl)-methyl-amino]-phenyl}-4,5-dihydro-isoxazol-5-ylmethyl)-amide]"
23,≤ 100 nM,"O=C(NCC1CC(c2ccc(-c3cc(Cl)ccc3CN3CCCC3)cc2)=NO1)c1ccc(Cl)s1 (stereo not shown) [Example 205, 5-Chloro-thiophene-2-carboxylic acid [3-(5′-chloro-2′-pyrrolidin-1-ylmethyl-biphenyl-4-yl)-4,5-dihydro-isoxazol-5-ylmethyl]-amide]"
24,100 to 500 nM,"CN1CCN=C1c1ccc(C2=NOC(CNC(=O)c3ccc(Cl)s3)C2)c(N2CCOCC2)c1 (stereo not shown) [Example 83, 5-Chloro-thiophene-2-carboxylic acid {3-[4-(1-methyl-4,5-dihydro-1H-imidazol-2-yl)-2-morpholin-4-yl-phenyl]-4,5-dihydro-isoxazol-5-ylmethyl}-amide]"
25,≤ 100 nM,"CN1CCN=C1c1ccc(C2=NOC(CNC(=O)c3ccc(Cl)s3)C2)cc1 (stereo not shown) [Example 9, 5-Chloro-thiophene-2-carboxylic acid {3-[4-(1-methyl-4,5-dihydro-1H-imidazol-2-yl)-phenyl]-4,5-dihydro-isoxazol-5-ylmethyl}-amide]"
